# Read-outs that look alike come from different tables or passages of the source.
# Columns and labels:
# [1] = target: T1, recombinant N-terminal GST-tagged human Rho kinase 1 (ROCK1, amino acids 1-535) (Homo sapiens, UniProt Q13464); test: In vitro Rho kinase assay (luciferase-based ATP consumption), ROCK1; format: biochemical
# T1 construct: ROCK1, amino acids 1-535; purchased Invitrogen Inc. PV-3691
# Method in brief: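 ATP depletion measured by firefly luciferase luminescence after 2 h at 30 °C, with inhibition raising signal and activity expressed relative to H-1152P. Reaction: 0.82 μg/ml recombinant GST-tagged ROCK1 (aa 1-535), S6 peptide 100 μg/ml, […], pH 7.5 Tris buffer.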
# [2] = target: T2, recombinant N-terminal GST-tagged human Rho kinase 2 (ROCK2, amino acids 1-552) (Homo sapiens, UniProt O75116); test: In vitro Rho kinase assay (luciferase-based ATP consumption), ROCK2; format: biochemical
# T2 construct: ROCK2, amino acids 1-552; purchased Invitrogen Inc. PV3759
# T2 sequence (O75116 1-552): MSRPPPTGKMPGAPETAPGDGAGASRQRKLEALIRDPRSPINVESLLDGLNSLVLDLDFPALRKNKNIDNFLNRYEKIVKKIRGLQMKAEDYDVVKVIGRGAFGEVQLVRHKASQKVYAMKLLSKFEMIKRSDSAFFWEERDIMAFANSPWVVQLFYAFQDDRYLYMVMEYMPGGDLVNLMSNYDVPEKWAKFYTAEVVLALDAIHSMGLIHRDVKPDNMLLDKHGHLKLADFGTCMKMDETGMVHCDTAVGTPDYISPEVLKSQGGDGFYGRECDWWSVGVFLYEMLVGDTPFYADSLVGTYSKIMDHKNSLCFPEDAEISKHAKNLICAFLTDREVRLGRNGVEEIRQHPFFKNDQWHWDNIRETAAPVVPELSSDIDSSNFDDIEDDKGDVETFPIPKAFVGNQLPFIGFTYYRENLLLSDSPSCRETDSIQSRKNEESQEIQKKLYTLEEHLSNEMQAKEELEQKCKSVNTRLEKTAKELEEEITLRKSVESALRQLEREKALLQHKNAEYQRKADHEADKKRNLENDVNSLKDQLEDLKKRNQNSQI
# Method in brief: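 Luciferase-based luminescence of leftover ATP after 2 h at 30 °C, where inhibition raises signal, reports activity of GST-tagged ROCK2 (aa 1-552) at 0.82 μg/ml. Conditions: S6 peptide 100 μg/ml, […], pH 7.5 Tris buffer. Results given as percent of H-1152P control activity.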
# [3] = recombinant GST-tagged human ROCK1, luciferase-based ATP consumption, read-out: ROCK1 IC50
# [4] = recombinant GST-tagged human ROCK2, luciferase-based ATP consumption, read-out: ROCK2 IC50
# [5] = ROCK1 IC50, recombinant GST-tagged human ROCK1, luciferase-based ATP consumption
# [6] = ROCK2 IC50, recombinant GST-tagged human ROCK2, luciferase-based ATP consumption
# T1 sequence (Q13464 1-535): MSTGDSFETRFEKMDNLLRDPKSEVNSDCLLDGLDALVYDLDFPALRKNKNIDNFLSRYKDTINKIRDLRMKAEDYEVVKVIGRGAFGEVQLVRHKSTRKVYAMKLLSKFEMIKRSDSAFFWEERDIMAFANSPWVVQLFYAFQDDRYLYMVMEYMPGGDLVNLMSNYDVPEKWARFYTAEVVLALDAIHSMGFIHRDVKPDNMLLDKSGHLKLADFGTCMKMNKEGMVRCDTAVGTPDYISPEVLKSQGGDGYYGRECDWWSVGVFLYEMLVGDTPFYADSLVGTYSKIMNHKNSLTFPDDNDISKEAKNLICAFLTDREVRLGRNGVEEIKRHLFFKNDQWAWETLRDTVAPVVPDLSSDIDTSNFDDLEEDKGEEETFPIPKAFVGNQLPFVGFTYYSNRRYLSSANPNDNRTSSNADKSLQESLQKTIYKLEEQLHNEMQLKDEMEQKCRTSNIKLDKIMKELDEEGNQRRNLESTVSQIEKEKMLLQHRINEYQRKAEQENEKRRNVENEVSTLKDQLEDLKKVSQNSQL
Compound,"IC50 [1, 3]","IC50 [2, 4]","IC50 [1, 5]","IC50 [2, 6]"
"Cc1cc(C(=O)NCc2ccc3sc(-c4ccnc(N)n4)c(C)c3c2)cc(Cl)n1 [Example 187, Cc1cc(cc(Cl)n1)C(═O)NCc2ccc3sc(c(C)c3c2)-c4ccnc(N)n4]",< 5 µM,< 5 µM,–,–
"Cc1c(-c2ccnc(N)n2)sc2ccc(CNC(=O)Cc3c(F)cccc3F)cc12 [Example 188, Cc1c(sc2ccc(CNC(═O)Cc3c(F)cccc3F)cc12)-c4ccnc(N)n4]",< 5 µM,< 5 µM,–,–
"Cc1c(-c2ccnc(N)n2)sc2ccc(CNC(=O)c3cccc4ccccc34)cc12 [Example 189, Cc1c(sc2ccc(CNC(═O)c3cccc4ccccc34)cc12)-c5ccnc(N)n5]",< 5 µM,< 5 µM,–,–
"Cc1c(-c2ccnc(N)n2)sc2ccc(CNC(=O)c3ccc(Cl)cc3O)cc12 [Example 190, Cc1c(sc2ccc(CNC(═O)c3ccc(Cl)cc3O)cc12)-c4ccnc(N)n4]",< 5 µM,< 5 µM,–,–
"Cc1c(-c2ccnc(N)n2)sc2ccc(CNC(=O)c3cc(Cl)ccc3O)cc12 [Example 191, Cc1c(sc2ccc(CNC(═O)c3cc(Cl)ccc3O)cc12)-c4ccnc(N)n4]",> 5 µM,< 5 µM,–,–
"Cc1c(-c2ccnc(N)n2)sc2ccc(CNC(=O)c3ccc4ncccc4c3)cc12 [Example 192, Cc1c(sc2ccc(CNC(═O)c3ccc4ncccc4c3)cc12)-c5ccnc(N)n5]",> 5 µM,< 5 µM,–,–
"Cc1c(-c2ccnc(N)n2)sc2ccc(CNC(=O)c3cnc(O)c(Cl)c3)cc12 [Example 193, Cc1c(sc2ccc(CNC(═O)c3cnc(O)c(Cl)c3)cc12)-c4ccnc(N)n4]",< 5 µM,> 5 µM,–,–
"Cc1c(-c2ccnc(N)n2)sc2ccc(CNC(=O)c3ccc(F)cc3Cl)cc12 [Example 194, Cc1c(sc2ccc(CNC(═O)c3ccc(F)cc3Cl)cc12)-c4ccnc(N)n4]",–,–,> 5 µM,< 5 µM
"Cc1c(-c2ccnc(N)n2)sc2ccc(CNC(=O)c3c(F)cccc3Cl)cc12 [Example 195, Cc1c(sc2ccc(CNC(═O)c3c(F)cccc3Cl)cc12)-c4ccnc(N)n4]",–,–,< 5 µM,< 5 µM
"Cc1c(-c2ccnc(N)n2)sc2ccc(CNC(=O)CNC(=O)OC(C)(C)C)cc12 [Example 196, Cc1c(sc2ccc(CNC(═O)CNC(═O)OC(C)(C)C)cc12)-c3ccnc(N)n3]",< 5 µM,< 5 µM,–,–
"Cc1c(C(=O)NCc2ccc3sc(-c4ccnc(N)n4)c(C)c3c2)oc2ccccc12 [Example 197, Cc1c(oc2ccccc12)C(═O)NCc3ccc4sc(c(C)c4c3)-c5ccnc(N)n5]",< 5 µM,> 5 µM,–,–
"Cc1c(-c2ccnc(N)n2)sc2ccc(CNC(=O)CC3Cc4ccccc4C3)cc12 [Example 198, Cc1c(sc2ccc(CNC(═O)CC3Cc4ccccc4C3)cc12)-c5ccnc(N)n5]",> 5 µM,< 5 µM,–,–
"Cc1c(-c2ccnc(N)n2)sc2ccc(CNC(=O)C3CCc4ccccc4C3)cc12 (stereo not drawn) [Example 199, Cc1c(sc2ccc(CNC(═O)C3CCc4ccccc4C3)cc12)-c5ccnc(N)n5]",> 5 µM,< 5 µM,–,–
"COc1ccccc1C=CC(=O)NCc1ccc2sc(-c3ccnc(N)n3)c(C)c2c1 [Example 200, COc1ccccc1C═CC(═O)NCc2ccc3sc(c(C)c3c2)-c4ccnc(N)n4]",< 5 µM,< 5 µM,–,–
"Cc1c(-c2ccnc(N)n2)sc2ccc(CNC(=O)c3csc4ccccc34)cc12 [Example 201, Cc1c(sc2ccc(CNC(═O)c3csc4ccccc34)cc12)-c5ccnc(N)n5]",> 5 µM,< 5 µM,–,–
"Cc1c(-c2ccnc(N)n2)sc2ccc(CNC(=O)c3cc4ccccc4s3)cc12 [Example 202, Cc1c(sc2ccc(CNC(═O)c3cc4ccccc4s3)cc12)-c5ccnc(N)n5]",< 5 µM,< 5 µM,–,–
"CCCCc1ccc(C(=O)NCc2ccc3sc(-c4ccnc(N)n4)c(C)c3c2)cc1 [Example 203, CCCCc1ccc(cc1)C(═O)NCc2ccc3sc(c(C)c3c2)-c4ccnc(N)n4]",> 5 µM,> 5 µM,–,–
"Cc1c(-c2ccnc(N)n2)sc2ccc(CNC(=O)c3ccc(C(C)(C)C)cc3)cc12 [Example 204, Cc1c(sc2ccc(CNC(═O)c3ccc(cc3)C(C)(C)C)cc12)-c4ccnc(N)n4]",< 5 µM,< 5 µM,–,–
"Cc1c(-c2ccnc(N)n2)sc2ccc(CNC(=O)c3ccc(N(C)C=O)cc3)cc12 [Example 205, CN(C═O)c1ccc(cc1)C(═O)NCc2ccc3sc(c(C)c3c2)-c4ccnc(N)n4]",< 5 µM,< 5 µM,–,–
"CC(=O)Nc1cccc(C(=O)NCc2ccc3sc(-c4ccnc(N)n4)c(C)c3c2)c1 [Example 206, CC(═O)Nc1cccc(c1)C(═O)NCc2ccc3sc(c(C)c3c2)-c4ccnc(N)n4]",< 5 µM,< 5 µM,–,–

Compound,"IC50 [1, 3]","IC50 [2, 4]","IC50 [1, 5]","IC50 [2, 6]"
"Cc1c(-c2ccnc(N)n2)sc2ccc(CNC(=O)COc3ccccc3C=O)cc12 [Example 207, Cc1c(sc2ccc(CNC(═O)COc3ccccc3C═O)cc12)-c4ccnc(N)n4]",< 5 µM,< 5 µM,–,–
"CC(=O)Oc1ccc(C(=O)NCc2ccc3sc(-c4ccnc(N)n4)c(C)c3c2)cc1 [Example 208, CC(═O)Oc1ccc(cc1)C(═O)NCc2ccc3sc(c(C)c3c2)-c4ccnc(N)n4]",< 5 µM,< 5 µM,–,–
"COC(=O)c1ccc(C(=O)NCc2ccc3sc(-c4ccnc(N)n4)c(C)c3c2)cc1 [Example 209, COC(═O)c1ccc(cc1)C(═O)NCc2ccc3sc(c(C)c3c2)-c4ccnc(N)n4]",< 5 µM,< 5 µM,–,–
"CC(=O)Oc1cccc(C(=O)NCc2ccc3sc(-c4ccnc(N)n4)c(C)c3c2)c1 [Example 210, CC(═O)Oc1cccc(c1)C(═O)NCc2ccc3sc(c(C)c3c2)-c4ccnc(N)n4]",< 5 µM,< 5 µM,–,–
"CC(=O)Oc1ccccc1C(=O)NCc1ccc2sc(-c3ccnc(N)n3)c(C)c2c1 [Example 211, CC(═O)Oc1ccccc1C(═O)NCc2ccc3sc(c(C)c3c2)-c4ccnc(N)n4]",< 5 µM,< 5 µM,–,–
"Cc1c(-c2ccnc(N)n2)sc2ccc(CNC(=O)Cc3ccc4c(c3)OCO4)cc12 [Example 212, Cc1c(sc2ccc(CNC(═O)Cc3ccc4OCOc4c3)cc12)-c5ccnc(N)n5]",< 5 µM,< 5 µM,–,–
"CCCOc1ccc(C(=O)NCc2ccc3sc(-c4ccnc(N)n4)c(C)c3c2)cc1 [Example 213, CCCOc1ccc(cc1)C(═O)NCc2ccc3sc(c(C)c3c2)-c4ccnc(N)n4]",< 5 µM,> 5 µM,–,–
"Cc1c(-c2ccnc(N)n2)sc2ccc(CNC(=O)c3ccc(OC(C)C)cc3)cc12 [Example 214, CC(C)Oc1ccc(cc1)C(═O)NCc2ccc3sc(c(C)c3c2)-c4ccnc(N)n4]",> 5 µM,> 5 µM,–,–
"Cc1cccc([N+](=O)[O-])c1C(=O)NCc1ccc2sc(-c3ccnc(N)n3)c(C)c2c1 [Example 215, Cc1cccc(c1C(═O)NCc2ccc3sc(c(C)c3c2)-c4ccnc(N)n4)[N+]([O−])═O]",> 5 µM,< 5 µM,–,–
"Cc1cccc(C(=O)NCc2ccc3sc(-c4ccnc(N)n4)c(C)c3c2)c1[N+](=O)[O-] [Example 216, Cc1cccc(C(═O)NCc2ccc3sc(c(C)c3c2)-c4ccnc(N)n4)c1[N+]([O−])═O]",> 5 µM,< 5 µM,–,–
"Cc1ccc([N+](=O)[O-])c(C(=O)NCc2ccc3sc(-c4ccnc(N)n4)c(C)c3c2)c1 [Example 217, Cc1ccc(c(c1)C(═O)NCc2ccc3sc(c(C)c3c2)-c4ccnc(N)n4)[N+]([O−])═O]",> 5 µM,< 5 µM,–,–
"Cc1c(C(=O)NCc2ccc3sc(-c4ccnc(N)n4)c(C)c3c2)cccc1[N+](=O)[O-] [Example 218, Cc1c(cccc1[N+]([O−])═O)C(═O)NCc2ccc3sc(c(C)c3c2)-c4ccnc(N)n4]",> 5 µM,< 5 µM,–,–
"COc1ccc(C(=O)NCc2ccc3sc(-c4ccnc(N)n4)c(C)c3c2)c(OC)c1 [Example 219, COc1ccc(C(═O)NCc2ccc3sc(c(C)c3c2)-c4ccnc(N)n4)c(OC)c1]",> 5 µM,< 5 µM,–,–
"COc1cccc(OC)c1C(=O)NCc1ccc2sc(-c3ccnc(N)n3)c(C)c2c1 [Example 220, COc1cccc(OC)c1C(═O)NCc2ccc3sc(c(C)c3c2)-c4ccnc(N)n4]",> 5 µM,< 5 µM,–,–
"COc1cc(OC)cc(C(=O)NCc2ccc3sc(-c4ccnc(N)n4)c(C)c3c2)c1 [Example 221, COc1cc(OC)cc(c1)C(═O)NCc2ccc3sc(c(C)c3c2)-c4ccnc(N)n4]",> 5 µM,< 5 µM,–,–
"COc1cccc(C(=O)NCc2ccc3sc(-c4ccnc(N)n4)c(C)c3c2)c1OC [Example 222, COc1cccc(C(═O)NCc2ccc3sc(c(C)c3c2)-c4ccnc(N)n4)c1OC]",> 5 µM,< 5 µM,–,–
"Cc1ccc(SCC(=O)NCc2ccc3sc(-c4ccnc(N)n4)c(C)c3c2)cc1 [Example 223, Cc1ccc(SCC(═O)NCc2ccc3sc(c(C)c3c2)-c4ccnc(N)n4)cc1]",> 5 µM,< 5 µM,–,–
"Cc1c(-c2ccnc(N)n2)sc2ccc(CNC(=O)C=Cc3ccc(Cl)cc3)cc12 [Example 224, Cc1c(sc2ccc(CNC(═O)C═Cc3ccc(Cl)cc3)cc12)-c4ccnc(N)n4]",> 5 µM,< 5 µM,–,–
"Cc1c(-c2ccnc(N)n2)sc2ccc(CNC(=O)C=Cc3ccccc3Cl)cc12 [Example 225, Cc1c(sc2ccc(CNC(═O)C═Cc3ccccc3Cl)cc12)-c4ccnc(N)n4]",–,–,> 5 µM,< 5 µM

# From patent publication US20080021026A1, “BENZOTHIOPHENE INHIBITORS OF RHO KINASE” (priority 2006, published 2008)
